Source: patent US20070258972A1, “Combination of a Histone Deacetylase Inhibitor with a Death Receptor Ligand” (priority 2003, published 2007)

Columns and labels:
c-FLIPL mRNA = experiment: RT-PCR assay for c-FLIP mRNA levels; type: cell-based; settings: 8 hours
Procedure: Total RNA was isolated from cells utilizing a TRIZOL LS reagent (Invitrogen Carlsbad, Calif.). RT-PCR analysis was performed, as previously described. The RNA (1.0 μg) was reverse-transcribed into cDNA by using SuperScript II RT (Invitrogen Carlsbad, Calif.) according to the manufacturer's protocol. For the c-FLIP PCR, the primer sequences are as follows, forward primer: 5′-GCCCGAGCACCGAGACTACG-3′; and reverse primer: 5′-AGG GAC GGD GAG CTG TGA GAC TG-3′. β-actin forward primer: 5′-CTA CM TGA GCT GCG TGT GG-3′; and reverse primer: MG GM GGC TGG MG AGT GC. The PCR reaction containing 0.2 mM concentration of dATP, dCTP, dGTP, dTTP and 200 nM concentration of each c-FLIP primers and 50 nM of each β-actin primers, 1.5 mM of MgCl2, and 10×PCR buffer containing Tris-HCL (pH 8.0), 500 mM KCL and 1 U of Tag polymerase (Invitrogen Carlsbad, Calif.). The reaction is performed at 95° C. for 5 minutes, and is followed by 30 cycles of de-naturating at 95° C. for 45 seconds, annealing at 52° C. for 45 seconds and the extension at 72° C. for one minute. The PCR products are separated on a 2% agarose/eithidium bromide gel. The size of the amplified products was 395 bases pairs for the c-FLIP and 527 base pairs for β-actin product, respectively.

Jurkat and SKW 6.4 cells = experiment: Western analyses of proteins, Jurkat and SKW 6.4 cells; type: cell-based, human
Procedure: Western analyses of DR4, DR5, Apo-2L, FADD, Caspase-8, c-FLIPL & S, BID, Caspase-9, Caspase-3, PARP, XIAP, clAP1, survivin and β-actin are performed using specific anti-sera or monoclonal antibodies according to previously reported protocols. Horizontal scanning densitometry was performed on Western blots by using acquisition into Adobe Photo Shop (Apple, Inc., Cupertino, Calif.) and analysis by the NIH Image Program (U.S. National Institutes of Health, Bethesda, Md.). The expression of β-actin was used as a control.

Primary AML cells = experiment: Apoptosis of primary AML cells by annexin V staining and flow cytometry; type: cell-based, human; settings: for % of Apoptosis: LAQ824 100 nM and/or Apo-2L/TRAIL 100 ng/mL, 24 hours
Source text: Jurkat T cell leukemia and SKW6.4 B lymphoblast cells are obtained from American Tissue Culture Collection (Manassas, Va.). HL-60/Bcl-2 cells with ectopic over-expression of Bcl-2 and the control HL-60/Neo cells are created and maintained in culture as previously described. Primary leukemia blasts from six patients with AML in relapse are harvested, as previously described, from the peripheral blood or bone marrow after informed consent, as a part of a protocol study sanctioned by the local Institutional Review Board. The purity of leukemia blasts in the samples prior to culture in LAQ824 and/or Apo-2L/TRAIL was at least 80% or more, as determined by morphologic evaluation after Wright staining.
After drug treatments, cells are resuspended in 100 μL of the staining solution containing annexin-V fluorescein and propidium iodide in a HEPES buffer (Annexin-V-FLUOS Staining Kit, Boehringer-Mannheim, and Indianapolis, Ind.). Following incubation at room temperature for 15 minutes, annexin V positive cells are estimated by flow cytometry, as previously described.

DR5 = DR5 cell-membrane expression by flow cytometry, Jurkat cells; type: cell-based, human
[1] = system: SKW 6.4 and Jurkat leukemia cells; experiment: Multi-probe RNase protection assay of mRNA levels; type: cell-based, human
Procedure: A RiboQuant Multi-Probe RNase Protection Assay System was used according to the manufacturer's instructions (BD/PharMingen, San Diego, Calif.). A probe set, hAPO-3d (FLICE, FAS, DR5, DR4 and TRAIL) was used for T7 RNA-polymerase directed synthesis of [α-32P] UTP-labeled antisense RNA probes. The probe set contains the DNA templates, including glyceraldehyde-3-phosphate dehydrogenase (GAPDH) used as internal control. The probes (1×10^6 cpm/reaction) are hybridized with 20 μg of RNA isolated from the SKW 6.4 and Jurkat leukemia cells, following treatment with 100 nM LAQ824 at different time points using the RNeasy Mini kit (Qiagen, Valencia, Calif.). After overnight hybridization, samples are digested with RNase to remove single-stranded (non-hybridized) RNA. The remaining probes are resolved on 5% de-naturing polyacrylamide gel and analyzed by autoradiography.

SKW 6.4 and Jurkat cells = experiment: Flow cytometry analysis of cell cycle status; type: cell-based, human; settings: 24 hours
Procedure: The flow cytometric evaluation of the cell cycle status is performed according to a previously described method. The percentage of cells in the G1, S-phase, and G2/M phases are calculated using Multicycle software (Phoenix Flow Systems, San Diego, Calif.).

[2] = 8 hours or 16 hours, densitometry, GAPDH loading control

O=C(/C=C/c1ccc(CN(CCO)CCc2c[nH]c3ccccc23)cc1)NO [LAQ824, N-hydroxy-3-[4-[[(2-hydroxyethyl)[2-(1H-indol-3-yl)ethyl]-amino]methyl]phenyl]-2E-2-propenamide]
inhibition of the mRNA level of c-FLIPL (c-FLIPL mRNA): 75% | acetylation of histone H3 and histone H4 (Jurkat and SKW 6.4 cells; 50 nM or 200 nM, 24 hours, Jurkat and SKW 6.4 cells): increased | intracellular levels of p27 (Jurkat and SKW 6.4 cells; 50 nM, SKW 6.4 and Jurkat cells): increase | p27 levels (Jurkat and SKW 6.4 cells; 200 nM, both cell-types): attenuated | Apo-2L/TRAIL, DR4 and DR5 levels (Jurkat and SKW 6.4 cells; 24 hours, SKW 6.4 and Jurkat cells): induces | levels of Bcl-xL, Bcl-2, XIAP, c-IAP and survivin (Jurkat and SKW 6.4 cells; SKW 6.4 and Jurkat cells): attenuates | levels of FLIPL and FLIPS (Jurkat and SKW 6.4 cells; SKW 6.4 and Jurkat cells): attenuates | levels of p21 (Jurkat and SKW 6.4 cells; SKW 6.4 cells): dose-dependent increase | % of Apoptosis (Primary AML cells; Patient 1 primary AML cells, control 7.0): 14.5% | % of Apoptosis (Primary AML cells; Patient 2 primary AML cells, control 12.0): 29.5% | % of Apoptosis (Primary AML cells; Patient 3 primary AML cells, control 8.0): 22.9% | % of Apoptosis (Primary AML cells; Patient 4 primary AML cells, control 10.0): 27.9% | % of Apoptosis (Primary AML cells; Patient 5 primary AML cells, control 6.0): 57.8% | % of Apoptosis (Primary AML cells; Patient 6 primary AML cells, control 7.0): 7.9% | apoptosis of primary AML blasts (in words) (Primary AML cells; six samples, relapsed AML, Apo-2L/TRAIL 100 ng/mL, LAQ824 100 nM): induces more apoptosis | cell-membrane expression of DR5 (DR5): induces | mRNA levels of Apo-2L/TRAIL and caspase-8 (FLICE) [1]: only minimally affected | mRNA expression of DR5, increase [1, 2]: 2.4 fold | mRNA expression of FAS, increase [1, 2]: 1.5 fold | DR4 mRNA levels, increase ([1]; only in SKW 6.4 cells): 2.2 fold | cells in the S phase of the cell cycle (SKW 6.4 and Jurkat cells): decline | percentage of cells in the G1 phase (SKW 6.4 and Jurkat cells): markedly increases
